Each structure is given as a SMILES string.

In the case of `C=C(c1ccsc1C=O)c1cc(C(C)(C)C)cc2c1CCC2(C)C` [Example 9, 3-[1-(6-tert-Butyl-1,1-dimethylindan-4-yl)ethen-1-yl]-thiophene-2-carboxaldehyde], the melting point – broadly, the temperature, or range, at which the solid turns liquid – lay in the range of 99 to 100 °C.
`C=C(c1cc(C(C)(C)C)cc2c1CCC2(C)C)c1sccc1C=O` [Example 11, 2-[1-(6-tert-Butyl-1,1-dimethylindan-4-yl)ethen-1-yl]-thiophene-3-carboxaldehyde] registered a melting point of 148 to 150 °C.
As for `C=C(c1ccsc1C(=O)O)c1cc(C(C)(C)C)cc2c1CCC2(C)C` [Example 10, 3-[1-(6-tert-Butyl-1,1-dimethylindan-4-yl)ethen-1-yl]-thiophene-2-carboxylic Acid], the figure is 146 to 148 °C.
In the case of `C=C(c1cc(C(C)(C)C)cc2c1CCC2(C)C)c1sccc1C(=O)O` [Example 12, 2-[1-(6-tert-Butyl-1,1-dimethylindan-4-yl)ethen-1-yl]-thiophene-3-carboxylic Acid], the melting point was in the range of 148 to 150 °C.
